Reference: article PMC10295546, “Synthesis, Cytotoxicity and Molecular Docking of New Hybrid Compounds by Combination of Curcumin with Oleanolic Acid” (Biomedicines, 2023)

How the values were obtained:
Format in all cases: cell-based, human
[1] = system: HT-29 cells; test: MTT cell viability assay, HT-29; conditions: for IC50: MTT
Experimental: (§1) The assay was performed as previously described.

[2] = system: HeLaWT cells; test: MTT cell viability assay, HeLaWT
Experimental: as §1

[3] = system: MCF-12A cells; test: MTT cell viability assay, non-tumorigenic MCF-12A
Experimental: as §1

[4] = system: MCF7 cells; test: MTT cell viability assay, MCF7; conditions: for IC50: MTT
Experimental: as §1

[5] = system: MCF7 cells; test: Cell cycle analysis (propidium iodide flow cytometry), MCF7; conditions: MCF7, both applied concentrations (0.5 × IC50 and 1 × IC50), 24 h
Experimental: (§2) To analyze the influence of the chosen compounds on the cell cycle, a flow cytometry analysis using propidium iodide was performed as previously described. The HT-29, MCF7 and HeLaWT cells (3 × 10^5 cells) were incubated overnight to reach sedimentation and then were treated with 0.5 and 1 × IC50 of KS1, KS2, KS5, KS6, KS7 and KS8, or Doxorubicin (positive control). Cell cycle analysis was performed after incubation for 24 h. Then, cells were harvested, washed twice with phosphate-buffered saline (PBS), and incubated with a solution of 1% saponin, 50 µg/mL propidium iodide and 10 mg/mL of RNase A (Sigma-Aldrich, Schnelldorf, Germany) in PBS for 1 h at 37 °C. DNA content was analyzed by flow cytometry at the […] wavelength of 488 nm using FACScan (Becton–Dickinson, Franklin Lakes, NJ, USA). The relative proportions of cells in the G1/G0, S and G2/M phases of the cell cycle were determined from the obtained data. Three separate experiments in triplicates were performed for each cell line.

[6] = system: HT-29 cells; test: TUNEL assay, HT-29; conditions: HT-29, 1 × IC50, 24 h, non-statistically significant
Experimental: (§3) To determine the percentage of apoptotic cells, the TUNEL assay was performed as described elsewhere. TUNEL staining for the detection and quantification of apoptosis at the single-cell level was performed using an in situ cell death detection kit (Roche, Mannheim, Germany) according to the manufacturer’s protocol. Briefly, HT-29, HeLaWT and MCF7 cells (5 × 10^5/well) were seeded into 6-well plates and cultured overnight before exposure to different concentrations of tested compounds for 24 h. For TUNEL labeling, cells were harvested, fixed, permeabilized and labeled with the TUNEL reaction mixture (enzyme and label solutions) for 1 h at 37 °C in the dark. Negative controls were created by omitting the terminal deoxynucleotidyl enzyme and adding the same volume of the label solution. The cells were analyzed using a FACScan flow cytometer (Becton–Dickinson, Franklin Lakes, NJ, USA).

[7] = system: HeLaWT cells; test: TUNEL assay, HeLaWT
Experimental: as §3

[8] = system: HeLaWT cells; test: Cell cycle analysis (propidium iodide flow cytometry), HeLaWT
Experimental: as §2

[9] = system: HT-29 cells; test: Cell cycle analysis (propidium iodide flow cytometry), HT-29
Experimental: as §2

[10] = system: HeLaWT, HT-29, MCF7 and MCF-12A cells; test: MTT cell viability assay, statement for all studied cells; conditions: for IC50: Homo sapiens, all studied cells, applied concentration range, time not specified
Experimental: as §1

[11] = Homo sapiens, MCF-12A, 24 h, MTT
[12] = Homo sapiens, MCF-12A, 48 h, MTT
[13] = Homo sapiens, MCF-12A, 72 h, MTT
[14] = Homo sapiens, non-cancerous MCF-12A cells, applied concentration range, time not specified

| SMILES | IC50 ([1]; Homo sapiens, HT-29, 24 h) | IC50 ([1]; Homo sapiens, HT-29, 48 h) | IC50 ([1]; Homo sapiens, HT-29, 72 h) | IC50 ([2]; Homo sapiens, 24 h) | IC50 ([2]; Homo sapiens, 48 h) | IC50 ([2]; Homo sapiens, 72 h) | IC50 [3, 11] | IC50 [3, 12] | IC50 [3, 13] | IC50 ([4]; Homo sapiens, MCF7, 24 h) | IC50 ([4]; Homo sapiens, MCF7, 48 h) | IC50 ([4]; Homo sapiens, MCF7, 72 h) | IC50 [3, 14] | IC50 [10] | other results |
| --- | --- | --- | --- | --- | --- | --- | --- | --- | --- | --- | --- | --- | --- | --- | --- |
| CC1(C)CCC2(C(=O)O)CCC3(C)C(=CCC4C5(C)CCC(OC(=O)CCC(=O)O)C(C)(C)C5CCC43C)C2C1 (stereo not drawn) [KS1, 4-{[(3 β )-28-hydroksy-28-oxoolean-12-en-3-yl]oxy}-4-oxobutanoic acid] | – | – | – | – | – | – | – | – | – | – | – | – | – | – | IC50 ([1]; HT-29, 24 h): > 100 µM; IC50 ([1]; HT-29, 48 h): > 100 µM; IC50 ([1]; HT-29, 72 h): > 100 µM; cytotoxic activity (in words) ([1]; HT-29, MTT, summary of Table 1): inactive; IC50 ([2]; 24 h): > 100 µM; IC50 ([2]; 48 h): > 100 µM; IC50 ([2]; 72 h): > 100 µM; cytotoxic activity (in words) ([2]; summary of Table 1): inactive; IC50 ([3]; MCF-12A, 24 h, MTT): > 100 µM; IC50 ([3]; MCF-12A, 48 h, MTT): 47.7 ± 2.1 µM; IC50 ([3]; MCF-12A, 72 h, MTT): 42.1 ± 1.9 µM; IC50 ([4]; MCF7, 24 h): > 100 µM; IC50 ([4]; MCF7, 48 h): 34.4 ± 2.2 µM; IC50 ([4]; MCF7, 72 h): 22.5 ± 0.9 µM; cytotoxic activity (in words) ([4]; MCF7, MTT, summary of Table 1): quite active |
| COc1cc(/C=C/C(=O)CC(=O)/C=C/c2ccc(O)c(OC)c2)ccc1O [KS2, curcumin] | 25.2 ± 1.3 µM | 13.9 ± 0.7 µM | 11.1 ± 0.6 µM | 57.2 ± 2.2 µM | 28.7 ± 1.1 µM | 16.2 ± 0.65 µM | 75.6 ± 2.5 µM | 46.4 ± 2 µM | 42 ± 1.6 µM | 15.6 ± 0.8 µM | 14.6 ± 0.6 µM | 7.5 ± 0.4 µM | – | – | effect on cell cycle phases [5]: a decrease in the G0/G1 phase, and an increase in the G2/M phase; increase of apoptosis (TUNEL) [6]: 10%; number of apoptotic cells (TUNEL) ([7]; 0.5 × IC50, 24 h): 30%; number of apoptotic cells (TUNEL) ([7]; 1 × IC50, 24 h): 80%; effect on cell cycle phases ([8]; 0.5 × IC50, 24 h): a decrease in the G0/G1 phase, and an increase in the G2/M phase; effect on cell cycle phases ([8]; 1 × IC50, 24 h): a decrease in the number of cells in the G0/G1 phase; increase of apoptotic cells (cell cycle analysis) ([8]; 1 × IC50, 24 h): up to 10%; increase of apoptotic cells (cell cycle analysis) ([9]; HT-29, 24 h, in comparison to control untreated cells): 7%; effect on cell cycle phases ([9]; HT-29, both applied concentrations (0.5 × IC50 and 1 × IC50), 24 h): a decrease in the G0/G1 phase, and an increase in the G2/M phase |
| COC(=O)C12CCC(C)(C)CC1C1=CCC3C4(C)CCC(OC(=O)CCC(=O)Oc5ccc(/C=C/C(O)=C/C(=O)/C=C/c6ccc(O)c(OC)c6)cc5OC)C(C)(C)C4CCC3(C)C1(C)CC2 (stereo not shown) [KS3, Curcumin mono-oleanoyl hydrogen succinate methyl ester] | > 100 µM | > 100 µM | > 100 µM | > 100 µM | > 100 µM | > 100 µM | > 100 µM | > 100 µM | > 100 µM | > 100 µM | > 100 µM | > 100 µM | > 100 µM | > 100 µM | – |
| COc1cc(/C=C/C(=O)/C=C(O)/C=C/c2ccc(OC(=O)CCC(=O)OC3CCC4(C)C(CCC5(C)C4CC=C4C6CC(C)(C)CCC6(C(=O)O)CCC45C)C3(C)C)c(OC)c2)ccc1O (stereo not shown) [KS4, Curcumin mono-oleanoyl hydrogen succinate] | > 100 µM | > 100 µM | > 100 µM | > 100 µM | > 100 µM | > 100 µM | > 100 µM | > 100 µM | > 100 µM | > 100 µM | > 100 µM | > 100 µM | > 100 µM | > 100 µM | – |
| COc1cc(/C=C/c2cc(/C=C/c3ccc(OC(=O)CCC(=O)OC4CCC5(C)C(CCC6(C)C5CC=C5C7CC(C)(C)CCC7(C(=O)O)CCC56C)C4(C)C)c(OC)c3)on2)ccc1O (stereo not shown) [KS5, Curcumin isoxazole mono-oleanoyl hydrogen succinate] | 29 ± 1.4 µM | 23.2 ± 1.2 µM | 21.5 ± 1.1 µM | 70.1 ± 3.5 µM | 51.2 ± 2.5 µM | 27.3 ± 1.4 µM | 83.2 ± 3.1 µM | 68.7 ± 2.4 µM | 49.9 ± 1.6 µM | 80.8 ± 4 µM | 45.6 ± 2.3 µM | 37.8 ± 1.9 µM | – | – | – |
| COc1cc(/C=C/c2cc(/C=C/c3ccc(OC(=O)CCC(=O)OC4CCC5(C)C(CCC6(C)C5CC=C5C7CC(C)(C)CCC7(C(=O)O)CCC56C)C4(C)C)c(OC)c3)[nH]n2)ccc1O (stereo not shown) [KS6, Curcumin pyrazole mono-oleanoyl hydrogen succinate] | 94.4 ± 4.7 µM | 51.9 ± 2.6 µM | 26 ± 1.3 µM | 77.1 ± 3.8 µM | 45 ± 2.3 µM | 25.9 ± 1.3 µM | > 100 µM | 54.3 ± 2.7 µM | 44.6 ± 1.9 µM | 69.1 ± 3.4 µM | 25.9 ± 1.3 µM | 20.2 ± 1 µM | – | – | – |
| COC(=O)C12CCC(C)(C)CC1C1=CCC3C4(C)CCC(OC(=O)CCC(=O)Oc5ccc(/C=C/c6cc(/C=C/c7ccc(O)c(OC)c7)no6)cc5OC)C(C)(C)C4CCC3(C)C1(C)CC2 (stereo not shown) [KS7, Curcumin isoxazole mono-oleanoyl hydrogen succinate methyl ester] | > 100 µM | > 100 µM | > 100 µM | > 100 µM | > 100 µM | > 100 µM | > 100 µM | > 100 µM | > 100 µM | > 100 µM | > 100 µM | > 100 µM | > 100 µM | > 100 µM | cytotoxic activity (in words) ([10]; all cell lines, MTT, summary of Table 1): inactive |
| COC(=O)C12CCC(C)(C)CC1C1=CCC3C4(C)CCC(OC(=O)CCC(=O)Oc5ccc(/C=C/c6cc(/C=C/c7ccc(O)c(OC)c7)n[nH]6)cc5OC)C(C)(C)C4CCC3(C)C1(C)CC2 (stereo not shown) [KS8, Curcumin pyrazole mono-oleanoyl hydrogen succinate methyl ester] | 20.6 ± 1 µM | 17.9 ± 0.9 µM | 17.3 ± 0.9 µM | 53.4 ± 2.7 µM | 36.9 ± 1.8 µM | 25.6 ± 1.2 µM | 62.7 ± 3.1 µM | 43.4 ± 2.2 µM | 42.3 ± 2.5 µM | 44.3 ± 2.2 µM | 33.2 ± 1.7 µM | 29.9 ± 1.5 µM | – | – | – |
